Measurements as given in the NIST ThermoML archive (doi:10.1021/je0255628).
“And” between values parts separate entries of the source, which are not always exact repeats. Equal entries are not always repeated. Numbers after ± are expanded uncertainties.

Conditions: Liquid

| Structure (SMILES) | vapor or sublimation pressure (313.15 K) | vapor or sublimation pressure (308.15 K) |
| --- | --- | --- |
| CCOC(=O)CC [ethyl propanoate] | 10.6 ± 0.17 kPa | – |
| CCCOC(C)=O [propyl ethanoate] | 9.586 ± 0.17 kPa | – |
| COC=O [methyl methanoate] | – | 114.88 ± 0.35 kPa |
| CCOCCO [2-ethoxyethan-1-ol] | 1.864 ± 0.16 kPa and 1.803 ± 0.16 kPa and 1.829 ± 0.16 kPa | 1.303 ± 0.16 kPa |
| CCOC(C)=O [ethyl acetate] | 25.08 ± 0.2 kPa | – |
| COC(C)=O [methyl ethanoate] | 53.81 ± 0.24 kPa | – |
